Legend:
[1] = molecular target: PCP recognition sites (PCP receptor); experiment: [3H]TCP radioreceptor assay (binding to PCP recognition sites); parameters: species or system rat (male Sprague-Dawley; settings: rat whole brain membranes, approx. 1 nM [3H]TCP; mean of at least two determinations
Experimental: [^3 H]TCP Radioreceptor Assay
[^3 H]TCP binding to PCP recognition sites was performed as described by Vignon et al. Brain Research 1983, 280, 194-197. Male Sprague-Dawley rats were sacrificed by decapitation, and whole brains were homogenized in 10 volumes (wt/vol) of cold Tris-HCl buffer (50 mM, pH 7.7) using a Brinkmann Polytron (setting 6, 30 sec). The homogenate was centrifuged at 40,000×g for 10 min at 4° C. The supernatant was decanted, and the homogenization and centrifugation steps were repeated twice as described above. Following this, the pellet was resuspended in Tris-HCl (5 mM, pH 7.7) at a tissue concentration of 0.5-0.75 g/ml, and one ml aliquots were frozen at -70° C. until use. The binding characteristics for PCP recognition sites were not altered by the freezing of membrane suspensions.
On the day of the assay, membrane aliquots were thawed, resuspended in fresh 5 mM Tris-HCl buffer at a tissue concentration of 1 mg/ml, and stored on ice until use. Each assay tube contained 100 μl of [^3 H]TCP at a final concentration of approximately 1 nM, 100 μl of various concentrations of the compounds of interest, 500 μl of the tissue suspension and 300 μl of buffer to a final assay volume of 1 ml and a final protein concentration of 0.5 mg/tube. Non-specific binding was defined by addition of a final concentration of 100 μM PCP to blank tubes. All tubes were incubated at room temperature for 25 min before termination of the reaction by rapid filtration over Whatman GF/B glass fiber filters that had been presoaked in a solution of 0.5% polyethylenimine for at least 1 hr prior to use. Filters were washed with three 4 ml volumes of cold Tris buffer. Following addition of scintillation cocktail, the amount of bound radioactivity was determined by liquid scintillation spectrometry using a Beckman LS 5000TA liquid scintillation counter with an efficiency for tritium of approximately 55%. Inhibition constants (Ki values) were calculated using the EBDA/LIGAND program (McPherson, J. Pharmacol. Meth. 1985, 14, 213-228), purchased from Elsevier/Biosoft, Inc. The results are reported as Ki values (in nM) which are expressed as the mean of at least two separate determinations, or as a percent (%) inhibition of binding at 10 μM.
(§1) Table 4 summarizes the results obtained from the testing of representative compounds of the invention in the [^3 H]TCP radioreceptor assay as well as in the antagonism of NMDA-induced neurotoxicity in cultured neurons.

[2] = tested on: NMDA-induced neurotoxicity in cultured cortical neurons; experiment: Antagonism of NMDA-induced neurotoxicity in cultured neurons; type: cell-based, mouse (Swiss-Webster); settings: 500 μM NMDA for 30 minutes, LDH activity after 24 hours
Experimental: Antagonism of NMDA-induced Neurotoxicity in Cultured Neurons
Preparation of cultured cortical neurons
Pregnant, Swiss-Webster mice were obtained from Taconic Farms (Germantown, N.Y.) and sacrificed 16 days post conception. Fetuses were removed and placed in a sterile dish containing Hank's balanced salt solution (HBSS), pH 7.4. Brain cortices were dissected, meninges were removed, the tissue was minced and placed into a solution of HBSS containing 0.25% (w/v) trypsin at 37° C. for 15 minutes. Tissue was then triturated with a sterile pasteur pipet, diluted with minimal essential media (Gibco 330-1430), pH 7.4, supplemented with 10% horse serum, 10% fetal calf serum, 2 mM 1-glutamine, 21 mM d-glucose, 2.2 g/L sodium bicarbonate, 1000 U/ml penicillin, and 1,000 μg/ml streptomycin. Cells were plated onto Falcon primaria 96 well plates at a final density of 50,000 cells/well and incubated at 37° C. in the presence of 5% (v/v) carbon dioxide. After 5 days, plating media was replaced with maintenance media containing minimal essential media (Gibco 330-1430), pH 7.4, supplemented with 10% horse serum, 10% 1-glutamine, 21 mM D-glucose, 2.2 g/l sodium bicarbonate,1,000 U/ml penicillin, 1,000 μg/ml streptomycin, and 10 μM cytosine arabinoside. On days 7 and 10, media was replaced with maintenance media as above lacking the cytosine arabinoside. Experiments were conducted on day 13.
Neuroprotection Assessment
Day 13 cultured cortical neurons were washed twice with minimal essential media, pH 7.4 and then exposed for 30 minutes to 500 μM N-methyl-D-aspartic acid (NMDA) with or without varying concentrations of test agents. […] MK-801 and test agents were prepared in minimal essential media supplemented with 21 mM d-glucose and 2.2 g/L sodium bicarbonate (MEM). After 30 minutes, media was replaced with MEM alone. Exposure of neurons to test agents was limited to the NMDA treatment period. Twenty-four hours after removal of NMDA, an aliquot of media from each well was removed for assessment of cell injury by determining lactate dehydrogenase (LDH) activity by the method of Wroblewski and LaDue Proc. Soc. Exp. Biol. Med. 1955, 90, 210-213. The results are expressed as an IC50 (in nM) value (concentration causing 50% inhibition) for the antagonism of NMDA-induced neurotoxicity.
as §1

SMILES: Cc1c[n+]2c(s1)C1c3ccccc3C2CC1(c1ccoc1)c1ccoc1 (stereo not shown) [16(E), 11,11-di(3-furyl)-5,10-ethano-5,10-dihydro-2-methylthiazolo[3,2-b]isoquinolinium chloride]
- Ki [1]: 11 nM
- IC50 ([2]; Mus musculus, Cortical neurone): 270 nM

SMILES: Cc1csc2[n+]1C1CC(c3ccoc3)(c3ccoc3)C2c2ccccc21 (stereo not shown) [15(F), 11,11-di(3-furyl)-5,10-ethano-5,10-dihydro-3-methylthiazolo[3,2-b]isoquinolinium chloride]
- Ki [1]: 20 nM
- IC50 ([2]; Mus musculus, Cortical neurone): 300 nM

SMILES: c1ccc2c(c1)C1CC(c3ccoc3)(c3ccoc3)C2c2scc[n+]21 (single isomer, unassigned; (+)) [5(e), (+)-11,11-di(3-furyl)-5,10-ethano-5,10-dihydrothiazolo[3,2-b]isoquinolinium chloride]
- Ki [1]: 2 nM
- IC50 [2]: 20 nM

SMILES: c1ccc2c(c1)C1CC(c3ccoc3)(c3ccoc3)C2c2scc[n+]21 (racemic) [4(e), 11,11-di(3-furyl)-5,10-ethano-5,10-dihydrothiazolo[3,2-b]isoquinolinium chloride]
- Ki [1]: 2.9 nM
- IC50 ([2]; Mus musculus, Cortical neurone): 50 nM

SMILES: Cn1cc[n+]2c1C1c3ccccc3C2CC1(c1ccoc1)c1ccoc1 (stereo not shown) [13(b), 11,11-di(3-furyl)-5,10-ethano-5,10-dihydro-1-methylimidazo[1,2-b]isoquinolin-4-ium chloride]
- Ki [1]: 2.9 nM
- IC50 ([2]; Mus musculus, Cortical neurone): 257 nM
